These results are taken from ChEMBL document CHEMBL1133757, “Reporter affinity labels: an o-phthalaldehyde derivative of beta-naltrexamine as a fluorogenic ligand for opioid receptors” (J Med Chem, 2000).

Experiment [1] addresses Kappa-type opioid receptor (Homo sapiens, UniProt P41145). Briefly: Inhibition of [3H]diprenorphine binding to Opioid receptor kappa 1.
Experiment [2] concerns the target Delta-type opioid receptor (Homo sapiens, UniProt P41143). In words: Inhibition of [3H]- diprenorphine binding to Opioid receptor delta 1.
The target of the next experiment is Mu-type opioid receptor (Homo sapiens, UniProt P35372). Briefly: Inhibition of [3H]- diprenorphine binding to Opioid receptor mu 1 (83 fmol/mg protein) stably expressed in membranes from CHO cells. It is filed as cell membranes.
Chain of Mu-type opioid receptor (P35372 whole entry): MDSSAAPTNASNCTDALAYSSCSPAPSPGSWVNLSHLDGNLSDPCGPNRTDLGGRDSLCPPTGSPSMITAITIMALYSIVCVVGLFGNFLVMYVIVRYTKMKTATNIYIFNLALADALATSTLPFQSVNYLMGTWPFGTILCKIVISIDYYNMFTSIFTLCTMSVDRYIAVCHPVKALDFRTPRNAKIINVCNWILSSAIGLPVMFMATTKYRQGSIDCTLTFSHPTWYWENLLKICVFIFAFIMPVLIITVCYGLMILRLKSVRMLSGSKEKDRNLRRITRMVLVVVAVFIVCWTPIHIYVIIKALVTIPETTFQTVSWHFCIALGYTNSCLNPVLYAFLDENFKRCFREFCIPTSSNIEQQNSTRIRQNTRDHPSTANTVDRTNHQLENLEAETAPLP

Chain of Delta-type opioid receptor (P41143 whole entry): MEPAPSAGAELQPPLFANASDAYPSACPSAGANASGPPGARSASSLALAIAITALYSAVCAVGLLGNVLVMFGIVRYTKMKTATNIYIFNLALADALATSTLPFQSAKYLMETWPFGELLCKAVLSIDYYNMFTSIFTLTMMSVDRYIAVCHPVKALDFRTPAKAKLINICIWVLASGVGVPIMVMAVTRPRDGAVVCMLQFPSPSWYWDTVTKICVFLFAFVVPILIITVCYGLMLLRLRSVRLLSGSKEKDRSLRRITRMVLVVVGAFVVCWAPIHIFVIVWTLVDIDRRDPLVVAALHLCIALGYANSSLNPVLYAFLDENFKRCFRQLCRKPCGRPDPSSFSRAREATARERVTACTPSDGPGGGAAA
Chain of Kappa-type opioid receptor (P41145 whole entry): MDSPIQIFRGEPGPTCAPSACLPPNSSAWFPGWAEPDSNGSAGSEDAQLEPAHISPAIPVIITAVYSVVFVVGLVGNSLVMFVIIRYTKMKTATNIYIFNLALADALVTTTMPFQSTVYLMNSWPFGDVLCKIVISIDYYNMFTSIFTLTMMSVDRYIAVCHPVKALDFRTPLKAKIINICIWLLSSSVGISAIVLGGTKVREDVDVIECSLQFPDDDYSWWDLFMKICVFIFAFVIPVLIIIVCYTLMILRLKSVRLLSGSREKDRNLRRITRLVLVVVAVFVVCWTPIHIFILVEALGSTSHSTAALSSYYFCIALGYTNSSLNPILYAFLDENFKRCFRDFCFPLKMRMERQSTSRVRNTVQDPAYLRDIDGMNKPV

Consider `O=Cc1ccc(C(=O)NCC(=O)N[C@@H]2CC[C@@]3(O)[C@H]4Cc5ccc(O)c6c5C3(CCN4CC3CC3)C2O6)cc1C=O` (stereo partly drawn), for which the Ki is 0.7 nM in experiment [1], 2.57 nM in experiment [2] and 0.45 nM on Mu-type opioid receptor.
